Among the data in patent publication US6346260B1, “Microbicidal active ingredients” (Ciba Specialty Chemicals Corporation, priority 1999, dated 2002) are MIC values, retold here.

Broadly, the MIC is the lowest concentration that inhibits growth of the organism.

Type in all cases: cell-based
For experiment [1], the system named is Pseudomonas aeruginosa CIP A-22. Put plainly: MIC in microtitre plates, Pseudomonas aeruginosa. As to conditions: CIPA22; Table 2; Pseudomonas aeruginosa CIP-A 22; 48 hours at 37° C.; ≦20% growth; read-out: MIC PA. On the procedure: (§1) Determination of Antimicrobial Activity in Accordance with the Microtitre Plate Method Determination of the Minimum Inhibitory Concentration (MIC value) in Microtitre Plates casein-soybean flour-peptone bouillon for the preparation of the precultures of the test bacteria and yeast. Pseudomonas aeruginosa CIP A-22 The test substances are predissolved in dimethyl sulfoxide (DMSO) and tested in a dilution series of 1:2. Bacteria and yeast are cultured overnight in CASO bouillon, the mould on mycological slant agar and rinsed off with 10 ml of 0.85% sodium chloride solution (+0.1% TritonX-100). All test organisms are adjusted to an organism count of 1-5*10^6 CFU/ml with 0.85% sodium chloride solution. The test substances are prepipetted into microtitre plates in an amount of 8 μl per well. Previously diluted test organism suspensions are diluted 1:100 in CASO bouillon (bacteria and yeast) and Sabouraud 2% glucose bouillon (mould) and added to the test substances in an amount of 192 μl per well. The test batches are incubated for 48 hours at 37° C. (bacteria and yeast) or for 5 days at 28° C. (mould). After incubation, the growth is determined by reference to the turbidity of the test batches (optical density) at 620 nm in a microplate reader. The minimum inhibitory concentration (MIC value) is the concentration of substance at which (compared with the growth of the control) an appreciable inhibition of the growth (≦20% growth) of the test organisms is ascertained. One microtitre plate is used for each test organism and substance concentration. All substances are tested in duplicate.

In experiment [2] the test system is Escherichia coli NCTC 8196. Put plainly: MIC in microtitre plates, Escherichia coli. As to conditions: NCTC8196; Table 2; Escherichia coli NCTC 8196; 48 hours at 37° C.; ≦20% growth; read-out: MIC EC. The protocol: as §1, with “Escherichia coli NCTC 8196” for “Pseudomonas aeruginosa CIP A-22”
In experiment [3] the test system is Aspergillus niger ATCC 6275. Put plainly: MIC in microtitre plates, Aspergillus niger. As to conditions: ATCC6275, 120 h; Table 2; Aspergillus niger ATCC 6275; 5 days at 28° C.; ≦20% growth; read-out: MIC AN. The protocol: as §1, with “Mycological slant agar” for “casein-soybean flour-peptone bouillon”, “preculture” for “preparation”, “moulds. Aspergillus niger ATCC 6275” for “the precultures of the test bacteria and yeast. Pseudomonas aeruginosa CIP A-22”

For experiment [4], the system named is Staphylococcus hominis DSM 20368. Description: MIC in microtitre plates, Staphylococcus hominis. As to conditions: DSM20368, Table 2, 48 hours at 37° C., ≦20% growth. On the procedure:
as §1, with “Staphylococcus hominis DSM 20328” for “Pseudomonas aeruginosa CIP A-22”

Experiment [5] deals with Candida albicans ATCC 10231. Put plainly: MIC in microtitre plates, Candida albicans. As to conditions: ATCC10231; Table 2; Candida albicans ATCC 10231; 48 hours at 37° C.; ≦20% growth; read-out: MIC CA. The protocol:
as §1, with “Candida albicans ATCC 10231” for “Pseudomonas aeruginosa CIP A-22”

≈ marks a conversion by molar mass, not a printed value. A value given as a limit tells only on which side of the number the result lay.

As for `O=C(CC(=O)c1cccs1)c1ccc(O)cc1` [(103)], the minimum inhibitory concentration (MIC) in experiment [1], in experiment [2], in experiment [3], in experiment [4] and in experiment [5] was > 120 µg/mL each time.

`Cc1ccccc1C(=O)CC(=O)c1ccc(O)cc1` [(106)]: the MIC in experiment [1], in experiment [2], in experiment [3], in experiment [4] and in experiment [5] was > 120 µg/mL in each case.

Turning to `COc1ccccc1C(=O)CC(=O)c1ccc(O)cc1` [(105)], the minimal inhibitory concentration (MIC) in experiment [1], in experiment [2], in experiment [3], in experiment [4] and in experiment [5] was > 120 µg/mL throughout.

For `Cc1cc(O)c(C(=O)CC(=O)c2ccccc2)cc1Cl` [(113)], the MIC in experiment [1], in experiment [2], in experiment [3], in experiment [4] and in experiment [5] was > 120 µg/mL throughout.

Take `COc1ccc(C(=O)CC(=O)c2ccc(O)cc2)cc1OC` [(107)]: the minimal inhibitory concentration (MIC) in experiment [1] is > 120 µg/mL; in experiment [2], 120 µg/mL (≈ 400 µM); in experiment [3] it was 120 µg/mL (≈ 400 µM); in experiment [4] it was > 120 µg/mL; in experiment [5] it was > 120 µg/mL.

`O=C(CC(=O)c1ccc(O)cc1)c1ccccc1` [(111)]: the minimal inhibitory concentration (MIC) in experiment [1], in experiment [2], in experiment [3], in experiment [4] and in experiment [5] was > 120 µg/mL each time.

For `COc1cc(C(=O)CC(=O)c2ccc(O)cc2)cc(OC)c1OC` [(108)], the MIC in experiment [1], in experiment [2], in experiment [3], in experiment [4] and in experiment [5] was > 120 µg/mL each time.

Turning to `O=C(CC(=O)c1cc(Br)ccc1O)c1ccccc1` [(114)], the minimum inhibitory concentration (MIC) in experiment [1], in experiment [2], in experiment [3], in experiment [4] and in experiment [5] was > 120 µg/mL in each case.

In the case of `Cc1ccc(O)c(C(=O)CC(=O)c2ccccc2)c1` [(112)], the minimal inhibitory concentration (MIC) in experiment [1], in experiment [2], in experiment [3], in experiment [4] and in experiment [5] was > 120 µg/mL in each case.

In the case of `COC(=O)c1cccc(C(=O)CC(=O)c2ccc(O)cc2)c1` [(109)], the MIC in experiment [1], in experiment [2], in experiment [3], in experiment [4] and in experiment [5] was > 120 µg/mL each time.

As to `O=C(CC(=O)c1ccccc1O)c1ccccc1` [(115)], the MIC in experiment [1], in experiment [2], in experiment [3], in experiment [4] and in experiment [5] was > 120 µg/mL each time.

On to `O=C(CC(=O)c1cccc(C(F)(F)F)c1)c1ccc(O)cc1` [(110)], for which the MIC in experiment [1] was > 120 µg/mL; in experiment [2] it was 60 µg/mL (≈ 195 µM); in experiment [3], 60 µg/mL (≈ 195 µM); in experiment [4], > 120 µg/mL; in experiment [5], > 120 µg/mL.
